Measured values as given in PubChem BioAssay (NCI).
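Five compound concentrations were applied to cells in 96-well plates for 48 hours; endpoints were derived by simple linear interpolation of the resulting dose-response curve. At the TGI there is no net growth.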

Experiments:
Experiment in all cases: NCI-60 cell line screen, 48 h
MDA-N = system: MDA-N
T-47D breast = system: T-47D breast
HOP-92 NSCLC = system: HOP-92 NSCLC
MALME-3M melanoma = system: MALME-3M melanoma
NCI-H460 lung = system: NCI-H460 lung
NCI-H226 lung = system: NCI-H226 lung
SK-OV-3 ovarian = system: SK-OV-3 ovarian
SF-295 CNS = system: SF-295 CNS
UO-31 renal = system: UO-31 renal
M14 melanoma = system: M14 melanoma
OVCAR-5 ovarian = system: OVCAR-5 ovarian
KM12 colon = system: KM12 colon
HT29 colon = system: HT29 colon
HS 578T breast = system: HS 578T breast
EKVX NSCLC = system: EKVX NSCLC
HL-60(TB) leukemia = system: HL-60(TB) leukemia
SF-539 CNS = system: SF-539 CNS
DU-145 prostate = system: DU-145 prostate
MOLT-4 leukemia = system: MOLT-4 leukemia
SR leukemia = system: SR leukemia
TK-10 renal = system: TK-10 renal
A549 NSCLC = system: A549 NSCLC
HOP-62 NSCLC = system: HOP-62 NSCLC
K-562 leukemia = system: K-562 leukemia
SNB-19 CNS = system: SNB-19 CNS
NCI/ADR-RES ovarian = system: NCI/ADR-RES ovarian
SNB-75 CNS = system: SNB-75 CNS
A498 renal = system: A498 renal
RPMI-8226 leukemia = system: RPMI-8226 leukemia
U251 CNS = system: U251 CNS
MDA-MB-435 = system: MDA-MB-435
UACC-257 melanoma = system: UACC-257 melanoma
IGROV1 ovarian = system: IGROV1 ovarian
NCI-H23 lung = system: NCI-H23 lung
SK-MEL-28 melanoma = system: SK-MEL-28 melanoma
OVCAR-3 ovarian = system: OVCAR-3 ovarian
SW-620 colon = system: SW-620 colon
SN12C renal = system: SN12C renal
SF-268 CNS = system: SF-268 CNS
BT-549 breast = system: BT-549 breast
PC-3 prostate = system: PC-3 prostate
OVCAR-8 ovarian = system: OVCAR-8 ovarian
MCF7 breast = system: MCF7 breast
SK-MEL-5 melanoma = system: SK-MEL-5 melanoma
CCRF-CEM leukemia = system: CCRF-CEM leukemia
RXF 393 renal = system: RXF 393 renal
HCT-15 colon = system: HCT-15 colon
ACHN renal = system: ACHN renal
HCT-116 colon = system: HCT-116 colon
UACC-62 melanoma = system: UACC-62 melanoma
786-0 renal = system: 786-0 renal
HCC-2998 colon = system: HCC-2998 colon
SK-MEL-2 melanoma = system: SK-MEL-2 melanoma
MDA-MB-231 breast = system: MDA-MB-231 breast
NCI-H522 lung = system: NCI-H522 lung
LOX IMVI melanoma = system: LOX IMVI melanoma
CAKI-1 renal = system: CAKI-1 renal
OVCAR-4 ovarian = system: OVCAR-4 ovarian
COLO 205 colon = system: COLO 205 colon

With `COc1ccc2nc3c(C)cc4ccccc4n3c2c1` as the molecule, how does the TGI (MDA-N) read?
Its TGI is over 100 µM.

And the TGI (T-47D breast)?
The TGI was over 100 µM.

What about the TGI (HOP-92 NSCLC) of the same molecule?
Its TGI is over 100 µM.

What about the TGI (MALME-3M melanoma) of the same molecule?
The TGI was over 100 µM.

What about the TGI (NCI-H460 lung) of the same molecule?
Its TGI is over 100 µM.

And the TGI (NCI-H226 lung)?
The TGI was over 100 µM.

And the TGI (SK-OV-3 ovarian)?
Its TGI is over 100 µM.

What about the TGI (SF-295 CNS) of the same molecule?
The TGI was over 100 µM.

And the TGI (UO-31 renal)?
Its TGI is over 100 µM.

What about the TGI (M14 melanoma) of the same molecule?
The TGI was over 100 µM.

What about the TGI (OVCAR-5 ovarian) of the same molecule?
The TGI was over 100 µM.

What about the TGI (KM12 colon) of the same molecule?
The TGI was over 100 µM.

And the TGI (HT29 colon)?
Its TGI is over 100 µM.

What about the TGI (HS 578T breast) of the same molecule?
The TGI was 79.3 µM.

What about the TGI (EKVX NSCLC) of the same molecule?
The TGI was over 100 µM.

What about the TGI (HL-60(TB) leukemia) of the same molecule?
Its TGI is over 100 µM.

What about the TGI (SF-539 CNS) of the same molecule?
The TGI was over 100 µM.

What about the TGI (DU-145 prostate) of the same molecule?
The TGI was over 100 µM.

What about the TGI (MOLT-4 leukemia) of the same molecule?
The TGI was over 100 µM.

What about the TGI (SR leukemia) of the same molecule?
Its TGI is over 100 µM.

And the TGI (TK-10 renal)?
The TGI was over 100 µM.

What about the TGI (A549 NSCLC) of the same molecule?
The TGI was over 100 µM.

What about the TGI (HOP-62 NSCLC) of the same molecule?
Its TGI is over 100 µM.

What about the TGI (K-562 leukemia) of the same molecule?
Its TGI is over 100 µM.

What about the TGI (SNB-19 CNS) of the same molecule?
The TGI was over 100 µM.

What about the TGI (NCI/ADR-RES ovarian) of the same molecule?
The TGI was over 100 µM.

What about the TGI (SNB-75 CNS) of the same molecule?
Its TGI is over 100 µM.

And the TGI (A498 renal)?
The TGI was 65.4 µM.

And the TGI (RPMI-8226 leukemia)?
The TGI was over 100 µM.

And the TGI (U251 CNS)?
Its TGI is over 100 µM.

What about the TGI (MDA-MB-435) of the same molecule?
The TGI was over 100 µM.

And the TGI (UACC-257 melanoma)?
The TGI was over 100 µM.

And the TGI (IGROV1 ovarian)?
The TGI was over 100 µM.

What about the TGI (NCI-H23 lung) of the same molecule?
Its TGI is over 100 µM.

What about the TGI (SK-MEL-28 melanoma) of the same molecule?
The TGI was over 100 µM.

And the TGI (OVCAR-3 ovarian)?
Its TGI is over 100 µM.

What about the TGI (SW-620 colon) of the same molecule?
The TGI was over 100 µM.

What about the TGI (SN12C renal) of the same molecule?
The TGI was over 100 µM.

And the TGI (SF-268 CNS)?
The TGI was over 100 µM.

And the TGI (BT-549 breast)?
Its TGI is over 100 µM.

What about the TGI (PC-3 prostate) of the same molecule?
The TGI was over 100 µM.

What about the TGI (OVCAR-8 ovarian) of the same molecule?
The TGI was over 100 µM.

What about the TGI (MCF7 breast) of the same molecule?
Its TGI is over 100 µM.

What about the TGI (SK-MEL-5 melanoma) of the same molecule?
The TGI was over 100 µM.

What about the TGI (CCRF-CEM leukemia) of the same molecule?
Its TGI is over 100 µM.

What about the TGI (RXF 393 renal) of the same molecule?
Its TGI is over 100 µM.

What about the TGI (HCT-15 colon) of the same molecule?
The TGI was over 100 µM.

And the TGI (ACHN renal)?
The TGI was over 100 µM.

What about the TGI (HCT-116 colon) of the same molecule?
The TGI was over 100 µM.

And the TGI (UACC-62 melanoma)?
Its TGI is over 100 µM.

And the TGI (786-0 renal)?
Its TGI is over 100 µM.

What about the TGI (HCC-2998 colon) of the same molecule?
Its TGI is over 100 µM.

With `O=[N+]([O-])c1cnc(N(CCO)CCO)s1` as the molecule, how does the TGI (MDA-N) read?
The TGI was over 100 µM.

And the TGI (T-47D breast)?
The TGI was over 100 µM.

And the TGI (HOP-92 NSCLC)?
The TGI was over 100 µM.

What about the TGI (MALME-3M melanoma) of the same molecule?
The TGI was over 100 µM.

And the TGI (SK-MEL-2 melanoma)?
The TGI was over 100 µM.

What about the TGI (MDA-MB-231 breast) of the same molecule?
The TGI was over 100 µM.

What about the TGI (NCI-H460 lung) of the same molecule?
Its TGI is over 100 µM.

And the TGI (NCI-H522 lung)?
The TGI was over 100 µM.

What about the TGI (NCI-H226 lung) of the same molecule?
The TGI was over 100 µM.

And the TGI (SK-OV-3 ovarian)?
The TGI was over 100 µM.

What about the TGI (SF-295 CNS) of the same molecule?
Its TGI is over 100 µM.

What about the TGI (UO-31 renal) of the same molecule?
Its TGI is over 100 µM.

And the TGI (M14 melanoma)?
The TGI was over 100 µM.

What about the TGI (OVCAR-5 ovarian) of the same molecule?
The TGI was over 100 µM.

What about the TGI (KM12 colon) of the same molecule?
The TGI was over 100 µM.

And the TGI (HT29 colon)?
Its TGI is over 100 µM.

And the TGI (EKVX NSCLC)?
The TGI was over 100 µM.

And the TGI (HL-60(TB) leukemia)?
Its TGI is over 100 µM.

And the TGI (LOX IMVI melanoma)?
The TGI was over 100 µM.

And the TGI (SF-539 CNS)?
The TGI was over 100 µM.

What about the TGI (DU-145 prostate) of the same molecule?
Its TGI is over 100 µM.

And the TGI (CAKI-1 renal)?
The TGI was over 100 µM.

What about the TGI (MOLT-4 leukemia) of the same molecule?
The TGI was over 100 µM.

And the TGI (SR leukemia)?
Its TGI is over 100 µM.

What about the TGI (A549 NSCLC) of the same molecule?
The TGI was over 100 µM.

And the TGI (HOP-62 NSCLC)?
Its TGI is over 100 µM.

And the TGI (K-562 leukemia)?
The TGI was over 100 µM.

And the TGI (SNB-19 CNS)?
The TGI was over 100 µM.

What about the TGI (OVCAR-4 ovarian) of the same molecule?
Its TGI is over 100 µM.

What about the TGI (NCI/ADR-RES ovarian) of the same molecule?
The TGI was over 100 µM.

And the TGI (SNB-75 CNS)?
Its TGI is 0.341 µM.

What about the TGI (A498 renal) of the same molecule?
Its TGI is over 100 µM.

What about the TGI (U251 CNS) of the same molecule?
Its TGI is over 100 µM.

What about the TGI (MDA-MB-435) of the same molecule?
Its TGI is over 100 µM.

And the TGI (UACC-257 melanoma)?
Its TGI is over 100 µM.

What about the TGI (IGROV1 ovarian) of the same molecule?
Its TGI is over 100 µM.

And the TGI (NCI-H23 lung)?
Its TGI is over 100 µM.

And the TGI (SK-MEL-28 melanoma)?
The TGI was over 100 µM.

What about the TGI (COLO 205 colon) of the same molecule?
Its TGI is over 100 µM.

What about the TGI (OVCAR-3 ovarian) of the same molecule?
The TGI was over 100 µM.

And the TGI (SW-620 colon)?
Its TGI is over 100 µM.

And the TGI (SN12C renal)?
Its TGI is over 100 µM.

What about the TGI (SF-268 CNS) of the same molecule?
The TGI was over 100 µM.

And the TGI (PC-3 prostate)?
Its TGI is over 100 µM.

What about the TGI (OVCAR-8 ovarian) of the same molecule?
The TGI was over 100 µM.

What about the TGI (MCF7 breast) of the same molecule?
The TGI was over 100 µM.

What about the TGI (SK-MEL-5 melanoma) of the same molecule?
Its TGI is over 100 µM.

And the TGI (CCRF-CEM leukemia)?
Its TGI is over 100 µM.

What about the TGI (RXF 393 renal) of the same molecule?
Its TGI is over 100 µM.

And the TGI (HCT-15 colon)?
The TGI was over 100 µM.

What about the TGI (ACHN renal) of the same molecule?
The TGI was over 100 µM.

And the TGI (HCT-116 colon)?
Its TGI is over 100 µM.

What about the TGI (UACC-62 melanoma) of the same molecule?
The TGI was over 100 µM.

What about the TGI (786-0 renal) of the same molecule?
Its TGI is over 100 µM.

What about the TGI (HCC-2998 colon) of the same molecule?
Its TGI is over 100 µM.
